This note sets out measurements from PubChem BioAssay AID328 (DTP/NCI, 2004).

For this experiment, the system named is BDF1 mice, P388 leukemia ip, median survival T/C. The experiment in a line: NCI In Vivo Anticancer Drug Screen. Data for tumor model P388 Leukemia (intraperitoneal) in B6D2F1 (BDF1) mice. As to conditions: endpoint: median survival time, higher = longer survival. In outline:
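Read-out is survival of treated animals expressed relative to the vehicle group, as a T/C ratio.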

[1] abbreviates: dose: 50.0 mg/kg/injection, schedule: Q01DX009 (ip), vehicle: saline with Tween-80.
[2] abbreviates: dose: 100.0 mg/kg/injection, schedule: Q01DX009 (ip), vehicle: saline with Tween-80.
[3] abbreviates: dose: 200.0 mg/kg/injection, schedule: Q01DX009 (ip), vehicle: saline with Tween-80.
Setting [4] is: dose: 100.0 mg/kg/injection, schedule: Q01DX009 (ip), vehicle: saline sonified.
Setting [5] is: dose: 100.0 mg/kg/injection, schedule: Q04DX003 (ip), vehicle: saline with Tween-80.
Setting [6] is: dose: 200.0 mg/kg/injection, schedule: Q04DX003 (ip), vehicle: saline with Tween-80.
Where [7] appears, read: dose: 400.0 mg/kg/injection, schedule: Q04DX003 (ip), vehicle: saline with Tween-80.
The mark [8] stands for this setting: dose: 25.0 mg/kg/injection, schedule: Q01DX009 (ip), vehicle: saline with Tween-80.
Setting [9] is: dose: 100.0 mg/kg/injection, schedule: Q01DX001 (ip), vehicle: saline with Tween-80.
The mark [10] stands for this setting: dose: 400.0 mg/kg/injection, schedule: Q01DX001 (ip), vehicle: saline with Tween-80.

“And” between values parts separate entries of the source, which are not always exact repeats. Equal values may be shown once. Inconclusive results and toxic doses are left out.

`O=NN(CCF)C(=O)NCCF`: the T/C (dose: 0.25 mg/kg/injection, schedule: Q01DX009 (ip), vehicle: saline) is 120 % of control; the T/C (dose: 0.5 mg/kg/injection, schedule: Q04DX003 (ip), vehicle: saline) is 120 % of control; the T/C (dose: 1.0 mg/kg/injection, schedule: Q01DX009 (ip), vehicle: saline) is 150 % of control and 172 % of control; the T/C (dose: 1.0 mg/kg/injection, schedule: Q04DX003 (ip), vehicle: saline) is 104 % of control; the T/C (dose: 2.0 mg/kg/injection, schedule: Q01DX009 (ip), vehicle: saline) was 268 % of control; the T/C (dose: 2.0 mg/kg/injection, schedule: Q04DX003 (ip), vehicle: saline) is 175 % of control. For the same molecule, the T/C was 165 % of control (dose: 3.3 mg/kg/injection, schedule: Q04DX003 (ip), vehicle: saline); 235 % of control (dose: 5.0 mg/kg/injection, schedule: Q04DX003 (ip), vehicle: saline); 95 % of control (dose: 7.5 mg/kg/injection, schedule: Q04DX003 (ip), vehicle: saline); 300 % of control (dose: 10.0 mg/kg/injection, schedule: Q04DX003 (ip), vehicle: saline); 110 % of control (dose: 20.0 mg/kg/injection, schedule: Q04DX003 (ip), vehicle: saline).
On to `COc1c(OC)c(OC)c2c(c1OC)c(=O)c1ccccc1n2C`, for which the T/C (dose: 50.0 mg/kg/injection, schedule: Q01DX010 (ip), vehicle: carboxymethylcellulose (CMC)) is 104 % of control and the T/C (dose: 100.0 mg/kg/injection, schedule: Q01DX010 (ip), vehicle: carboxymethylcellulose (CMC)) was 122 % of control.
In the case of `CCOC(=O)C1=C(O)Cc2c(nc3ccc(C)cn3c2=O)C1`, the T/C is, setting by setting: under setting [1], 100 % of control; under setting [2], 96 % of control; under setting [3], 98 % of control.
In the case of `CC1(C)N=C(N)N=C(N)N1c1cccc(OCCOc2ccc(NC(=O)CBr)cc2)c1`, the T/C was 116 % of control (dose: 50.0 mg/kg/injection, schedule: Q01DX009 (ip), vehicle: saline sonified) and 111 % of control under setting [4].
For the molecule `CCOC(=O)C(c1ccccc1)c1ccccc1`, the T/C is 100 % of control (dose: 100.0 mg/kg/injection, schedule: Q04DX003 (ip), vehicle: other); 95 % of control (dose: 200.0 mg/kg/injection, schedule: Q04DX003 (ip), vehicle: other); 90 % of control (dose: 400.0 mg/kg/injection, schedule: Q04DX003 (ip), vehicle: other).
Take `CC/C(=N/O)c1ccccc1`: the T/C by setting is: under setting [5], 90 % of control; under setting [6], 110 % of control; under setting [7], 105 % of control.
For `CC(C)NCC(O)COc1ccc(OCc2ccccc2)c(OCc2ccccc2)c1` (stereo unspecified), the T/C under setting [8] was 106 % of control and the T/C under setting [1] was 94 % of control.
On to `CN(Cc1ccccc1)c1ccc(/C=C/c2ccnc3ccccc23)cc1`, for which the T/C is 93 % of control (dose: 12.5 mg/kg/injection, schedule: Q01DX001 (ip), vehicle: saline with Tween-80); 89 % of control (dose: 25.0 mg/kg/injection, schedule: Q01DX001 (ip), vehicle: saline with Tween-80); 88 % of control (dose: 50.0 mg/kg/injection, schedule: Q01DX001 (ip), vehicle: saline with Tween-80); 93 % of control under setting [9]; 94 % of control under setting [10].
In the case of `COc1ccc(C(C#N)Nc2ccccc2)cc1` (stereo unspecified), the T/C runs as follows: under setting [2], 105 % of control; under setting [5], 109 % of control; under setting [3], 110 % of control; under setting [6], 100 % of control; (dose: 400.0 mg/kg/injection, schedule: Q01DX009 (ip), vehicle: saline with Tween-80) 95 % of control; under setting [7], 109 % of control.
For `O=C(O)c1cc(Cl)c(C(=O)O)cc1Cl`, the T/C reads like this: (dose: 75.0 mg/kg/injection, schedule: Q01DX009 (ip), vehicle: saline with Tween-80) 116 % of control; (dose: 150.0 mg/kg/injection, schedule: Q01DX009 (ip), vehicle: saline with Tween-80) 104 % of control; (dose: 300.0 mg/kg/injection, schedule: Q01DX009 (ip), vehicle: saline with Tween-80) 108 % of control.
Turning to `CCCCOCN(COCCCC)c1ccc(C)cc1`, the T/C under setting [1] was 100 % of control and the T/C under setting [2] was 112 % of control.
For the molecule `CN1CCN(CCCN2c3ccccc3Sc3ccc(Cl)cc32)CC1`, the T/C reads like this: (dose: 6.25 mg/kg/injection, schedule: Q01DX009 (ip), vehicle: saline) 113 % of control; (dose: 12.5 mg/kg/injection, schedule: Q01DX009 (ip), vehicle: saline) 109 % of control.
Take `CC1(C)N=C(N)N=C(N)N1c1ccc(OCCNC(=O)Nc2ccc(S(=O)(=O)F)cc2)c(Cl)c1`: the T/C (dose: 4.8 mg/kg/injection, schedule: Q01DX009 (ip), vehicle: saline) is 118 % of control; the T/C (dose: 25.0 mg/kg/injection, schedule: Q01DX009 (ip), vehicle: saline) is 175 % of control; the T/C (dose: 50.0 mg/kg/injection, schedule: Q01DX009 (ip), vehicle: saline) is 180 % of control; the T/C (dose: 66.0 mg/kg/injection, schedule: Q01DX009 (ip), vehicle: saline) is 168 % of control; the T/C (dose: 66.0 mg/kg/injection, schedule: Q04DX003 (ip), vehicle: saline) was 123 % of control; the T/C (dose: 100.0 mg/kg/injection, schedule: Q01DX009 (ip), vehicle: saline) is 159 % of control and 200 % of control.
As to `S=C1NC2=C(CCC/C2=C\c2ccccc2)C(c2ccccc2)N1` (stereo unspecified), the T/C was 91 % of control under setting [1] and 96 % of control under setting [2].
As to `CC(C)CCC[C@@H](C)[C@H]1CC[C@H]2[C@@H]3CC=C4C[C@@H](Cl)CC[C@]4(C)[C@H]3CC[C@]12C`, the T/C (dose: 50.0 mg/kg/injection, schedule: Q04DX003 (sc), vehicle: Klucel (hydroxypropylcellulose) (HPC)) was 95 % of control; the T/C (dose: 100.0 mg/kg/injection, schedule: Q04DX003 (sc), vehicle: Klucel (hydroxypropylcellulose) (HPC)) is 104 % of control; the T/C (dose: 200.0 mg/kg/injection, schedule: Q04DX003 (sc), vehicle: Klucel (hydroxypropylcellulose) (HPC)) is 95 % of control.
For `COC1OC(n2cnc3ncn(Cc4ccccc4)c3c2=N)C2OC(C)(C)OC12` (stereo unspecified), the T/C was 110 % of control (dose: 100.0 mg/kg/injection, schedule: Q01DX001 (ip), vehicle: saline) and 95 % of control (dose: 200.0 mg/kg/injection, schedule: Q01DX001 (ip), vehicle: saline).
Turning to `Cc1ccc(S(=O)(=O)N/N=C/c2ccncc2)cc1`, the T/C runs as follows: (dose: 12.5 mg/kg/injection, schedule: Q01DX009 (ip), vehicle: other) 110 % of control; (dose: 25.0 mg/kg/injection, schedule: Q01DX009 (ip), vehicle: other) 117 % of control; (dose: 50.0 mg/kg/injection, schedule: Q01DX009 (ip), vehicle: other) 119 % of control; (dose: 200.0 mg/kg/injection, schedule: Q01DX009 (ip), vehicle: other) 155 % of control.
`COc1cccc2c1C(=O)c1c(O)c3c(c(O)c1C2=O)C[C@@](O)(/C(C)=N/NC(=O)c1ccc(O)cc1)C[C@@H]3OC1CC(N)C(O)C(C)O1` (stereo partly specified): the T/C is 120 % of control (dose: 0.25 mg/kg/injection, schedule: Q01DX009 (ip), vehicle: water); 164 % of control and 223 % of control (dose: 1.0 mg/kg/injection, schedule: Q01DX009 (ip), vehicle: water); 156 % of control and 207 % of control (dose: 2.0 mg/kg/injection, schedule: Q01DX009 (ip), vehicle: water); 224 % of control and 225 % of control (dose: 4.0 mg/kg/injection, schedule: Q01DX009 (ip), vehicle: water); 245 % of control (dose: 8.0 mg/kg/injection, schedule: Q01DX009 (ip), vehicle: water).
On to `Cc1ccc(N=Cc2ccccc2O)cc1Cl`, for which the T/C by setting is: under setting [9], 109 % of control; (dose: 200.0 mg/kg/injection, schedule: Q01DX001 (ip), vehicle: saline with Tween-80) 100 % of control; under setting [10], 100 % of control.
As for `C=CCSc1nc(N)nc2nc[nH]c12`, the T/C is 110 % of control under setting [4], 104 % of control under setting [5], 100 % of control under setting [6] and 109 % of control under setting [7].
Consider `CCOC(=O)C1=C(C)NC(C)=C(C(=O)OCC)C1c1ccc([N+](=O)[O-])s1`, for which the T/C was 106 % of control under setting [1] and 99 % of control under setting [2].
`CC(C)CC(NC(=O)CN)C(=O)O` (stereo unspecified): the T/C is 98 % of control under setting [8]; 99 % of control under setting [1]; 102 % of control under setting [2]; 111 % of control under setting [3]; 118 % of control (dose: 200.0 mg/kg/injection, schedule: Q01DX009 (ip), vehicle: saline); 96 % of control (dose: 400.0 mg/kg/injection, schedule: Q01DX009 (ip), vehicle: saline).
